This is an account of results in the supplement of paper PMC10307832.

Common to all, as to experiment: relative viability (nuclei count vs DMSO), 5 days (fraction); higher = more cells survive
Compound in one test: O=C(NCCCNc1nc(Nc2cccc(NC(=O)N3CCCC3)c2)ncc1I)c1cccs1 [BX 795]
In outline: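 A plate was accepted only when its control CV was below 25% and the cells had doubled at least once. Viability is defined from nuclear counts as treated wells divided by vehicle wells, with the median taken across plates. That median covers lung cancer cell lines grown in 1536-well plates, dosed by pinning at five √10-spaced library-drug concentrations, and counted in MetaXpress from 4× Hoechst images after 5 days.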

Compound in the test “BX 795 + Linsitinib”: O=C(NCCCNc1nc(Nc2cccc(NC(=O)N3CCCC3)c2)ncc1I)c1cccs1 [BX 795] + C[C@]1(O)C[C@@H](c2nc(-c3ccc4ccc(-c5ccccc5)nc4c3)c3c(N)nccn32)C1 [Linsitinib] (partner 1 µM)
In outline: (§1)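 Medians of duplicate plates are given as relative viability. That measure is the nuclei count in treated wells divided by the count in vehicle wells. Counts were taken on 4× images of lung cancer cell lines in 1536-well plates, 5 days after pin-tool dosing the day after seeding with one drug alone or a fixed anchor-drug dose plus five library-drug doses (not always all listed) in √10 steps.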

Compound in the test “BX 795 + Dasatinib”: O=C(NCCCNc1nc(Nc2cccc(NC(=O)N3CCCC3)c2)ncc1I)c1cccs1 [BX 795] + Cc1nc(Nc2ncc(C(=O)Nc3c(C)cccc3Cl)s2)cc(N2CCN(CCO)CC2)n1 [Dasatinib] (partner 0.075 µM)
The method in brief: as §1

Compound in the test “BX 795 + Phenformin”: O=C(NCCCNc1nc(Nc2cccc(NC(=O)N3CCCC3)c2)ncc1I)c1cccs1 [BX 795] + N=C(N)NC(=N)NCCc1ccccc1 [Phenformin] (partner 250 µM)
In outline:
as §1

Compound in the test “BX 795 + AZD7762”: O=C(NCCCNc1nc(Nc2cccc(NC(=O)N3CCCC3)c2)ncc1I)c1cccs1 [BX 795] + NC(=O)Nc1cc(-c2cccc(F)c2)sc1C(=O)N[C@H]1CCCNC1 [AZD7762] (partner 0.2 µM)
The method in brief: as §1

As for NCI-H1755, the relative viability in the test with BX 795 (0.04 µM) was 1.05; in the test with BX 795 (0.1265 µM), 1.03; with BX 795 (0.4 µM), 0.972; with BX 795 (1.265 µM), 0.881; with BX 795 + Linsitinib (first compound 0.04 µM) it was 1.04; in the test with BX 795 + Linsitinib (first compound 0.1265 µM), 0.93. Besides, the relative viability turned out to be 1.01 with BX 795 + Linsitinib (first compound 0.4 µM); 0.689 in the test with BX 795 + Linsitinib (first compound 1.265 µM); 0.432 in the test with BX 795 + Dasatinib (first compound 0.04 µM); 0.468 in the test with BX 795 + Dasatinib (first compound 0.1265 µM); 0.465 with BX 795 + Dasatinib (first compound 0.4 µM); 0.353 with BX 795 + Dasatinib (first compound 1.265 µM). The relative viability in the test with BX 795 + Phenformin (first compound 0.04 µM) came out at 0.618; with BX 795 + Phenformin (first compound 0.1265 µM), 0.564; with BX 795 + Phenformin (first compound 0.4 µM), 0.592; in the test with BX 795 + Phenformin (first compound 1.265 µM), 0.546; with BX 795 + AZD7762 (first compound 0.04 µM) it was 0.465; in the test with BX 795 + AZD7762 (first compound 0.1265 µM) it was 0.467. In addition, the relative viability was found to be 0.374 in the test with BX 795 + AZD7762 (first compound 0.4 µM) and 0.386 in the test with BX 795 + AZD7762 (first compound 1.265 µM).

For NCI-H838, the relative viability with BX 795 (0.04 µM) was 0.892; with BX 795 (0.1265 µM) it was 0.993; with BX 795 (0.4 µM), 0.79; with BX 795 (1.265 µM), 0.614; in the test with BX 795 + Linsitinib (first compound 0.04 µM), 0.936; with BX 795 + Linsitinib (first compound 0.1265 µM), 0.986. In addition, the relative viability in the test with BX 795 + Linsitinib (first compound 0.4 µM) amounted to 0.881; in the test with BX 795 + Linsitinib (first compound 1.265 µM), 0.331; with BX 795 + Dasatinib (first compound 0.04 µM), 0.29; with BX 795 + Dasatinib (first compound 0.1265 µM), 0.367; in the test with BX 795 + Dasatinib (first compound 0.4 µM), 0.261; in the test with BX 795 + Dasatinib (first compound 1.265 µM), 0.231. Further, the relative viability in the test with BX 795 + Phenformin (first compound 0.04 µM) turned out to be 0.494; with BX 795 + Phenformin (first compound 0.1265 µM), 0.538; in the test with BX 795 + Phenformin (first compound 0.4 µM), 0.425; with BX 795 + Phenformin (first compound 1.265 µM), 0.214; with BX 795 + AZD7762 (first compound 0.04 µM), 0.94; with BX 795 + AZD7762 (first compound 0.1265 µM), 0.981. Further, the relative viability in the test with BX 795 + AZD7762 (first compound 0.4 µM) is 0.786; with BX 795 + AZD7762 (first compound 1.265 µM), 0.824.

For NCI-H1355, the relative viability was determined as 1.01 with BX 795 (0.04 µM); 1.01 in the test with BX 795 (0.1265 µM); 1.02 with BX 795 (0.4 µM); 0.873 with BX 795 (1.265 µM); 0.768 with BX 795 + Linsitinib (first compound 0.04 µM); 0.869 with BX 795 + Linsitinib (first compound 0.1265 µM). The relative viability was determined as 0.811 with BX 795 + Linsitinib (first compound 0.4 µM); 0.65 with BX 795 + Linsitinib (first compound 1.265 µM); 0.763 with BX 795 + Dasatinib (first compound 0.04 µM); 0.659 in the test with BX 795 + Dasatinib (first compound 0.1265 µM); 0.684 with BX 795 + Dasatinib (first compound 0.4 µM); 0.664 with BX 795 + Dasatinib (first compound 1.265 µM). Moreover, the relative viability came to 0.491 in the test with BX 795 + Phenformin (first compound 0.04 µM); 0.455 with BX 795 + Phenformin (first compound 0.1265 µM); 0.465 with BX 795 + Phenformin (first compound 0.4 µM); 0.357 in the test with BX 795 + Phenformin (first compound 1.265 µM); 0.784 in the test with BX 795 + AZD7762 (first compound 0.04 µM); 0.607 in the test with BX 795 + AZD7762 (first compound 0.1265 µM). Also, the relative viability with BX 795 + AZD7762 (first compound 0.4 µM) amounted to 0.734; with BX 795 + AZD7762 (first compound 1.265 µM) it was 0.69.

On to HCC-78, for which the relative viability worked out at 1.1 with BX 795 (0.04 µM); 1 with BX 795 (0.1265 µM); 1.01 with BX 795 (0.4 µM); 0.933 with BX 795 (1.265 µM); 0.624 with BX 795 + Linsitinib (first compound 0.04 µM); 0.657 with BX 795 + Linsitinib (first compound 0.1265 µM). The relative viability in the test with BX 795 + Linsitinib (first compound 0.4 µM) came to 0.534; in the test with BX 795 + Linsitinib (first compound 1.265 µM) it was 0.554; in the test with BX 795 + Dasatinib (first compound 0.04 µM), 0.462; with BX 795 + Dasatinib (first compound 0.1265 µM), 0.379; with BX 795 + Dasatinib (first compound 0.4 µM) it was 0.364; in the test with BX 795 + Dasatinib (first compound 1.265 µM), 0.392. Moreover, the relative viability with BX 795 + Phenformin (first compound 0.04 µM) came out at 0.853; with BX 795 + Phenformin (first compound 0.1265 µM), 0.656; in the test with BX 795 + Phenformin (first compound 0.4 µM), 0.817; with BX 795 + Phenformin (first compound 1.265 µM), 0.708; with BX 795 + AZD7762 (first compound 0.04 µM) it was 0.583; in the test with BX 795 + AZD7762 (first compound 0.1265 µM) it was 0.631. For the same cell line, the relative viability with BX 795 + AZD7762 (first compound 0.4 µM) was determined as 0.606; in the test with BX 795 + AZD7762 (first compound 1.265 µM) it was 0.594.
